Experiments:
[1] = cited from earlier work
[2] = system: luciferase-expressing HCT-116 cells; assay: Orthotopic colorectal cancer metastasis model (cells injected into cecum wall); type: in vivo, mice; conditions: orthotopic HCT-116-luc, 40 mg/kg twice per week, 8 administrations
Protocol: 2×10^6 luciferase-expressing HCT-116 cells were directly injected into the wall of the cecum with surgery to establish the orthotopic colorectal cancer metastasis model, this model spontaneously produces highly metastatic tumors in adjacent intestinal tissues, peritoneum, and distance metastasis (spleen, kidney, liver, and diaphragm). Tumor-bearing mice received IRI and IRI@NTT2_186k at dose levels of 40 mg/kg twice per week for a total of 8 administrations. The tumor growth and metastasis were observed by the IVIS system once a week and body weight was observed over the study period. To assess overall survival, animals were monitored up to the point of spontaneous death or approaching moribund status.

[3] = system: chicken embryo chorioallantoic membrane (CAM) tumor model; assay: Chorioallantoic membrane (CAM) analysis for angiogenesis; type: in vivo; conditions: administered on day 12, observed days 14 and 16
Protocol: To evaluate the effect of MSNs on tumor angiogenesis, chicken embryo chorioallantoic membrane (CAM) tumor model was used. The fertilized eggs were incubated in the incubator for 10 days, then a small window was opened in the eggshell and the cancer cells were implanted on the CAM membrane near the aorta. MSN or Doxorubicin (DOX) was administered on day 12 when the tumor was formed and the angiogenesis near the tumor was observed on days 14 and 16.

Structure (SMILES)	pka [1]	tumor course once treatment was discontinued [2]	tumor growth rate [2]	inhibition of primary tumor growth and metastases ([2]; IVIS)	blood vessels near the tumor [3]
CCc1c2c(nc3ccc(OC(=O)N4CCC(N5CCCCC5)CC4)cc13)-c1cc3c(c(=O)n1C2)COC(=O)[C@]3(O)CC [IRI, irinotecan]	about 10.9	tumor relapse and tumor metastases were observed	slower tumor growth rate compared to the control group	inefficient inhibition of tumor growth and metastases	–
COc1cccc2c1C(=O)c1c(O)c3c(c(O)c1C2=O)C[C@@](O)(C(=O)CO)C[C@@H]3O[C@H]1C[C@H](N)[C@H](O)[C@H](C)O1 [DOX, Doxorubicin]	–	–	–	–	blood vessels exhibited disintegration and decreased density

Reference: patent publication EP4364726A1, “METHOD FOR TREATING A CANCER AND/OR CANCER METASTASIS” (Nano Targeting & Therapy Biopharma Inc., priority 2022, dated 2024)
